{
  "source": "patent US12486266B2",
  "about": "“Crystalline form of JAK inhibitor and application thereof” (Zhuhai United Laboratories CO., LTD., priority 2020, dated 2025)",
  "key": {"[1]": {"tested_on": "adjuvant induced arthritis (AIA) rat model"}, "[2]": {"tested_on": "collagen induced arthritis (CIA) in mice", "settings": "for Average clinical score / Incidence rate: dosing from day 28"}, "[3]": {"settings": "day 13, 0.3 mg/kg p.o. qd from day 13"}, "[4]": {"settings": "day 15, 0.3 mg/kg p.o. qd from day 13"}, "[5]": {"settings": "day 17, 0.3 mg/kg p.o. qd from day 13"}, "[6]": {"settings": "day 20, 0.3 mg/kg p.o. qd from day 13"}, "[7]": {"settings": "day 22, 0.3 mg/kg p.o. qd from day 13"}, "[8]": {"settings": "day 24, 0.3 mg/kg p.o. qd from day 13"}, "[9]": {"settings": "day 27, 0.3 mg/kg p.o. qd from day 13"}, "[10]": {"settings": "day 27, 0.3 mg/kg p.o. qd from day 13, listed as Dexamethasone acetate"}, "[11]": {"settings": "right hind foot, day 27, 0.3 mg/kg p.o. qd"}, "[12]": {"settings": "day 31, 0.3 mg/kg p.o. qd, listed as Dex."}, "[13]": {"settings": "day 15, 30 mg/kg p.o. bid from day 13"}, "[14]": {"settings": "day 17, 30 mg/kg p.o. bid from day 13"}, "[15]": {"settings": "day 20, 30 mg/kg p.o. bid from day 13"}, "[16]": {"settings": "day 22, 30 mg/kg p.o. bid from day 13"}, "[17]": {"settings": "day 24, 30 mg/kg p.o. bid from day 13"}},
  "note": "Where two headings read alike, the source gives them in different places. Marks after values point to notes of the source that are not given here.",
  "data": [
    {"smiles": "C[C@@H]1C[C@H]2[C@@H]3CCC4=CC(=O)C=C[C@]4(C)[C@@]3(F)[C@@H](O)C[C@]2(C)[C@@]1(O)C(=O)CO", "note": "[Dexamethasone]", "values": [
      {"measurement": "Inhibition rate (total pathological score vs solvent control)", "setting": "[1]; 0.3 mg/kg p.o. qd", "value": 72.5, "unit": "%"},
      {"measurement": "Clinical score (mean)", "setting": "[1]; [3]", "value": 6.0},
      {"measurement": "Foot volume (mean)", "setting": "[1]; [3]", "value": 1.9, "unit": "mL"},
      {"measurement": "Clinical score (mean)", "setting": "[1]; [4]", "value": "5.3*"},
      {"measurement": "Foot volume (mean)", "setting": "[1]; [4]", "value": "1.7**** mL"},
      {"measurement": "Clinical score (mean)", "setting": "[1]; [5]", "value": "4.1****"},
      {"measurement": "Foot volume (mean)", "setting": "[1]; [5]", "value": "1.4**** mL"},
      {"measurement": "Clinical score (mean)", "setting": "[1]; [6]", "value": "3.4****"},
      {"measurement": "Foot volume (mean)", "setting": "[1]; [6]", "value": "1.3**** mL"},
      {"measurement": "Clinical score (mean)", "setting": "[1]; [7]", "value": "3.1****"},
      {"measurement": "Foot volume (mean)", "setting": "[1]; [7]", "value": "1.3**** mL"},
      {"measurement": "Clinical score (mean)", "setting": "[1]; [8]", "value": "3.1****"},
      {"measurement": "Foot volume (mean)", "setting": "[1]; [8]", "value": "1.2**** mL"},
      {"measurement": "Clinical score (mean)", "setting": "[1]; [9]", "value": 2.7},
      {"measurement": "Foot volume (mean)", "setting": "[1]; [9]", "value": 1.21, "unit": "mL"},
      {"measurement": "Clinical score (mean)", "setting": "[1]; [10]", "value": "2.9****"},
      {"measurement": "Foot volume (mean)", "setting": "[1]; [10]", "value": "1.2**** mL"},
      {"measurement": "Pathological score: Bone resorption", "setting": "[1]; [11]", "value": "0.6 ± 0.2"},
      {"measurement": "Pathological score: Cartilage injury", "setting": "[1]; [11]", "value": "0.6 ± 0.2"},
      {"measurement": "Pathological score: Inflammatory cell infiltration", "setting": "[1]; [11]", "value": "1.8 ± 0.2"},
      {"measurement": "Pathological score: Pannus formation", "setting": "[1]; [11]", "value": "1.4 ± 0.3"},
      {"measurement": "Pathological score: Total score", "setting": "[1]; [11]", "value": "4.4±0.8"},
      {"measurement": "Pathological score: Total score", "setting": "[1]; right hind foot, day 27, 0.3 mg/kg p.o. qd, listed as Dexamethasone acetate", "value": "4.4 ± 0.8"},
      {"measurement": "Inhibition rate (clinical score AUC vs control group)", "setting": "[2]; 0.3 mg/kg p.o. qd 14 days", "value": 97.3, "unit": "%"},
      {"measurement": "Inhibition rate (clinical score AUC vs control group)", "setting": "[2]; 0.3 mg/kg p.o. qd 14 days, listed as Dex.", "value": 97.3, "unit": "%"},
      {"measurement": "AUC ± SEM (area under incidence/clinical score curve)", "setting": "[2]; administration period, 0.3 mg/kg p.o. qd 14 days", "value": "1.38 ± 0.81"},
      {"measurement": "Average clinical score", "setting": "[2]; day 21, 0.3 mg/kg p.o. qd", "value": "0.00 ± 0.00"},
      {"measurement": "Incidence rate", "setting": "[2]; day 21, 0.3 mg/kg p.o. qd", "value": 0, "unit": "%"},
      {"measurement": "Average clinical score", "setting": "[2]; day 24, 0.3 mg/kg p.o. qd", "value": "0.00 ± 0.00"},
      {"measurement": "Incidence rate", "setting": "[2]; day 24, 0.3 mg/kg p.o. qd", "value": 0, "unit": "%"},
      {"measurement": "Average clinical score", "setting": "[2]; day 27, 0.3 mg/kg p.o. qd", "value": "about 0.3"},
      {"measurement": "Incidence rate", "setting": "[2]; day 27, 0.3 mg/kg p.o. qd", "value": 25, "unit": "%"},
      {"measurement": "Average clinical score", "setting": "[2]; day 27, 0.3 mg/kg p.o. qd, listed as Dex.", "value": "0.25 ± 0.16"},
      {"measurement": "Average clinical score", "setting": "[2]; day 28, 0.3 mg/kg p.o. qd", "value": "0.50 ± 0.27"},
      {"measurement": "Incidence rate", "setting": "[2]; day 28, 0.3 mg/kg p.o. qd", "value": 38, "unit": "%"},
      {"measurement": "Average clinical score", "setting": "[2]; day 29, 0.3 mg/kg p.o. qd", "value": "0.25 ± 0.16"},
      {"measurement": "Incidence rate", "setting": "[2]; day 29, 0.3 mg/kg p.o. qd", "value": 25, "unit": "%"},
      {"measurement": "Average clinical score", "setting": "[2]; day 31, 0.3 mg/kg p.o. qd", "value": 0},
      {"measurement": "Incidence rate", "setting": "[2]; day 31, 0.3 mg/kg p.o. qd", "value": 0, "unit": "%"},
      {"measurement": "Average clinical score", "setting": "[2]; [12]", "value": "0.00 ± 0.00"},
      {"measurement": "Incidence rate", "setting": "[2]; [12]", "value": 0, "unit": "%"},
      {"measurement": "Average clinical score", "setting": "[2]; day 34, 0.3 mg/kg p.o. qd", "value": "0.00 ± 0.00"},
      {"measurement": "Incidence rate", "setting": "[2]; day 34, 0.3 mg/kg p.o. qd", "value": 0, "unit": "%"},
      {"measurement": "Average clinical score", "setting": "[2]; day 36, 0.3 mg/kg p.o. qd", "value": "0.00 ± 0.00"},
      {"measurement": "Incidence rate", "setting": "[2]; day 36, 0.3 mg/kg p.o. qd", "value": 0, "unit": "%"},
      {"measurement": "Average clinical score", "setting": "[2]; day 38, 0.3 mg/kg p.o. qd", "value": "0.00 ± 0.00"},
      {"measurement": "Incidence rate", "setting": "[2]; day 38, 0.3 mg/kg p.o. qd", "value": 0, "unit": "%"},
      {"measurement": "Average clinical score", "setting": "[2]; day 41, 0.3 mg/kg p.o. qd", "value": "0.00 ± 0.00"},
      {"measurement": "Incidence rate", "setting": "[2]; day 41, 0.3 mg/kg p.o. qd", "value": 0, "unit": "%"}
    ]},
    {"smiles": "O=C(Nc1nc2cccc(-c3ccc(CN4CCS(=O)(=O)CC4)cc3)n2n1)C1CC1", "note": "[Filgotinib]", "values": [
      {"measurement": "Clinical score (mean)", "setting": "[1]; [13]", "value": 6.6},
      {"measurement": "Foot volume (mean)", "setting": "[1]; [13]", "value": 2.2, "unit": "mL"},
      {"measurement": "Clinical score (mean)", "setting": "[1]; [14]", "value": 6.3},
      {"measurement": "Foot volume (mean)", "setting": "[1]; [14]", "value": "2.0** mL"},
      {"measurement": "Clinical score (mean)", "setting": "[1]; [15]", "value": "5.8**"},
      {"measurement": "Foot volume (mean)", "setting": "[1]; [15]", "value": "1.9**** mL"},
      {"measurement": "Clinical score (mean)", "setting": "[1]; [16]", "value": "5.5***"},
      {"measurement": "Foot volume (mean)", "setting": "[1]; [16]", "value": "2.0**** mL"},
      {"measurement": "Clinical score (mean)", "setting": "[1]; [17]", "value": "5.4****"},
      {"measurement": "Foot volume (mean)", "setting": "[1]; [17]", "value": "2.0**** mL"},
      {"measurement": "Foot volume (mean)", "setting": "[1]; day 27, 30 mg/kg p.o. bid from day 13", "value": "1.9**** mL"},
      {"measurement": "Pathological score: Bone resorption", "setting": "[1]; right hind foot, day 27, 30 mg/kg p.o. bid", "value": "3.6 ± 0.2"},
      {"measurement": "Incidence rate", "setting": "[2]; day 21, 15 mg/kg p.o. bid", "value": 0, "unit": "%"},
      {"measurement": "Incidence rate", "setting": "[2]; day 24, 15 mg/kg p.o. bid", "value": 0, "unit": "%"},
      {"measurement": "Incidence rate", "setting": "[2]; day 27, 15 mg/kg p.o. bid", "value": 25, "unit": "%"},
      {"measurement": "Incidence rate", "setting": "[2]; day 29, 15 mg/kg p.o. bid", "value": 50, "unit": "%"},
      {"measurement": "Incidence rate", "setting": "[2]; day 31, 15 mg/kg p.o. bid", "value": 75, "unit": "%"},
      {"measurement": "Incidence rate", "setting": "[2]; day 34, 15 mg/kg p.o. bid", "value": 88, "unit": "%"},
      {"measurement": "Incidence rate", "setting": "[2]; day 36, 15 mg/kg p.o. bid", "value": 88, "unit": "%"},
      {"measurement": "Incidence rate", "setting": "[2]; day 38, 15 mg/kg p.o. bid", "value": 88, "unit": "%"},
      {"measurement": "Incidence rate", "setting": "[2]; day 41, 15 mg/kg p.o. bid", "value": 100, "unit": "%"}
    ]}
  ]
}
